Reference: article PMC8301576 (Clinical and Translational Science, 2021)
Several values for one entry are separate records, joined by “and”; a condition that tells them apart may be missing. Equal entries are not always repeated. Where two headings read alike, the source gives them in different places.

Assays:
Plasma protein binding = type: in vitro ADME
[1] = Trial 1: plasma pharmacokinetics in healthy subjects; type: in vivo, human
[2] = Trial 2: plasma pharmacokinetics in healthy subjects; type: in vivo, human; details: 48 h postdose after 7 days 300 mg TLV q.d.
OATP1B1 = biological target: T1, OATP1B1 (Homo sapiens, UniProt Q9Y6L6); type: in vivo
T1 sequence (Q9Y6L6 1-691): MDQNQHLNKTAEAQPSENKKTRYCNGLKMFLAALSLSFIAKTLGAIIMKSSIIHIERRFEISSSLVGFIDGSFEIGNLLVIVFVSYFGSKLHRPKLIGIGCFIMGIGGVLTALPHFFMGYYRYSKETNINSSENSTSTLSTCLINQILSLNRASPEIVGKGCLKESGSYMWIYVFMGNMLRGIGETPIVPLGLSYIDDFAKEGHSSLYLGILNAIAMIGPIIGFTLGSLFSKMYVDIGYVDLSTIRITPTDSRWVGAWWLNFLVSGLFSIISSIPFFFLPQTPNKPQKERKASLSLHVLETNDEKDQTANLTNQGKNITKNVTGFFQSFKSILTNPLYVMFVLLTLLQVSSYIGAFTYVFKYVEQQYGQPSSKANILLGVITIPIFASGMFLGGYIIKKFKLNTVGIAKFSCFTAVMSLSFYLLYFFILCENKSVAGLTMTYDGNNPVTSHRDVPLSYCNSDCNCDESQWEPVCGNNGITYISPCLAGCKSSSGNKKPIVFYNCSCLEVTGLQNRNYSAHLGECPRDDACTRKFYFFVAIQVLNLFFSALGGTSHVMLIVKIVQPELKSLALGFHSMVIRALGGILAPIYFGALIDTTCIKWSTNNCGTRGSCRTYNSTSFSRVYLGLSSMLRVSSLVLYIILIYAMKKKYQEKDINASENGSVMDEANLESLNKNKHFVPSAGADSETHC

OAT3 = biological target: T2, OAT3 (Homo sapiens, UniProt Q8TCC7); test: Trial 2: clinical DDI, furosemide in presence of DM-4103 vs furosemide alone; type: in vivo; details: at clinically relevant concentrations
T2 sequence (Q8TCC7 1-542): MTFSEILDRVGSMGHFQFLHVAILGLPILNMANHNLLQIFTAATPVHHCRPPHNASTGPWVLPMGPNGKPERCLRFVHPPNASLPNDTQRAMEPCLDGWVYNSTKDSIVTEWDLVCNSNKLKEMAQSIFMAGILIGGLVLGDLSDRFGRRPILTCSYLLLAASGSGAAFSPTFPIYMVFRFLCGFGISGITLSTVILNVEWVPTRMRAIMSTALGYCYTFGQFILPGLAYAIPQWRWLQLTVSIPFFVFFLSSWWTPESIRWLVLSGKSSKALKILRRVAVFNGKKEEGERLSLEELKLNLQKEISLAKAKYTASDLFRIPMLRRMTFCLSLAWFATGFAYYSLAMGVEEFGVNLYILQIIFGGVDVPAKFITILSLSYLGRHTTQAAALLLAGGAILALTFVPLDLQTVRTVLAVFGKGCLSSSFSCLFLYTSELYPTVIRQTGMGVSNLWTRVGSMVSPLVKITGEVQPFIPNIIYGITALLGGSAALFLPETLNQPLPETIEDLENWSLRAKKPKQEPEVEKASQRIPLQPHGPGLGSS

[3] = Earlier clinical data on TLV and DM-4103; type: in vivo, human; details: from elimination half-life
[4] = cited from earlier work
[5] = Trial 2: treatment-emergent adverse events; type: in vivo, human
BCRP [6] = biological target: T3, BCRP (Homo sapiens, UniProt Q9UNQ0); test: Trial 1: clinical DDI, rosuvastatin with TLV vs rosuvastatin alone; type: in vivo
T3 sequence (Q9UNQ0 1-655): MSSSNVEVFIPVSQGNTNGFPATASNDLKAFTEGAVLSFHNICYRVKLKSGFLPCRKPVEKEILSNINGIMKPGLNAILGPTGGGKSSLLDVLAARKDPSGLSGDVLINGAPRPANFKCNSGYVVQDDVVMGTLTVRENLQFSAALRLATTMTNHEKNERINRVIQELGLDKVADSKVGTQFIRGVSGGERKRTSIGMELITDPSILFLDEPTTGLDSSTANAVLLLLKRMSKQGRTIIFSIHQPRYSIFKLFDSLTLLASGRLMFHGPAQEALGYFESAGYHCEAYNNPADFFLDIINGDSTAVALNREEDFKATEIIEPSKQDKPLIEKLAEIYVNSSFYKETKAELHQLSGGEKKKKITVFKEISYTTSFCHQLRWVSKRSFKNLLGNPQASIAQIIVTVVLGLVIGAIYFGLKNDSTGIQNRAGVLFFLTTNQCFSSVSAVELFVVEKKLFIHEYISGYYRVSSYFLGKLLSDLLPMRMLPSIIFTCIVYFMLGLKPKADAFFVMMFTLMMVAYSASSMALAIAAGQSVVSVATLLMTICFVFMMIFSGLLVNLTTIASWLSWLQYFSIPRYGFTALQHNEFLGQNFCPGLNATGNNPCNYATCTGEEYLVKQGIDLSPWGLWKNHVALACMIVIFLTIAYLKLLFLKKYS

[7] = Trial 1: treatment-emergent adverse events; type: in vivo, human
[8] = test system: sodium‐dependent taurocholate co‐transporting polypeptide (NTCP); details: cited from earlier work
[9] = cited from earlier work; for Solubility: pH independent
[10] = test system: sandwich‐cultured human hepatocytes; details: cited from earlier work
[11] = predicted; cited from earlier work
BCRP [12] = biological target: T3, BCRP; test: Prazosin transport in MDCKII BCRP expressing cells; details: 90-mg TLV dose (200 µmol) assumed completely soluble in 250 ml
[13] = rosuvastatin + 90 mg tolvaptan vs rosuvastatin alone, n = 14
[14] = trial 1, period 3 (TLV alone, 300 mg q.d.)
[15] = trial 2, period 2 (TLV alone, 300 mg q.d.)

Cc1ccccc1C(=O)Nc1ccc(C(=O)Nc2ccc(Cl)cc2C(=O)CCC(=O)O)c(C)c1 [DM‐4103]
Plasma protein binding (Plasma protein binding): greater than 99.8%
Plasma concentration, mean (SD) ([1]; trial 1, 48 h postdose after 7 days 300 mg TLV q.d.): 7240 (1880) ng/ml
Plasma concentration, mean (SD) [2]: 6430 (2030) ng/ml
Clinical inhibition of OATP1B1 (OATP1B1; at clinically relevant concentrations): not an inhibitor
Clinical inhibition of OAT3 (OAT3): not an inhibitor
Time to steady-state concentrations after start of TLV dosing [3]: ~ 8 weeks
Mean steady-state plasma concentration ([4]; 90 + 30 mg TLV regimen in subjects with ADPKD, ref data on file): ~ 7500 ng/ml and ~15.7 µM
Elimination half-life [4]: ~ 180 h
Plasma concentrations ([4]; first 2 h following a 90 mg TLV dose, ref data on file): less than 100 ng/ml

NS(=O)(=O)c1cc(C(=O)O)c(NCc2ccco2)cc1Cl [Furosemide, furosemide]
TEAE incidence: polyuria ([5]; trial 2, period 1 (furosemide alone)): 64.3%
TEAE incidence: headache ([5]; trial 2, period 3 (furosemide in presence of DM-4103)): 21.4%

CC(C)c1nc(N(C)S(C)(=O)=O)nc(-c2ccc(F)cc2)c1/C=C/[C@@H](O)C[C@@H](O)CC(=O)O [ROS, rosuvastatin]
Tmax ([1]; 5 mg ROS alone, median (minimum-maximum)): 3.50 (2.00–6.00) h
AUC(0-inf) ([1]; human, plasma, oral, 5 mg, AUC∞, 5 mg ROS alone, minimum-maximum, n = 7): 20.3 to 36 ng·h/mL
CL/F ([1]; human, plasma, oral, 5 mg, CL/F, 5 mg ROS alone, minimum-maximum, n = 7): 28.5 to 68.2 mL/min/kg
half-life ([1]; human, plasma, oral, 5 mg, t1/2,z, 5 mg ROS alone, minimum-maximum, n = 7): 2.4 to 4.3 h
Geometric mean ratio (90% CI), AUC∞ (BCRP [6]; rosuvastatin + 90 mg tolvaptan vs rosuvastatin alone, n = 6): 1.281^a 1.148–1.429
Geometric mean ratio (90% CI), AUCt (BCRP [6]; [13]): 1.69
Geometric mean ratio (90% CI), Cmax (BCRP [6]; [13]): 1.54
Geometric mean ratio (90% CI), AUC∞ (OATP1B1; rosuvastatin in presence of DM-4103 vs rosuvastatin alone, n = 5): 0.998^b 0.876–1.138
TEAE incidence: nausea ([7]; trial 1, period 1 (rosuvastatin)): 12.5%
TEAE incidence: headache ([7]; trial 1, period 3 (rosuvastatin in presence of DM-4103)): 14.3%
Share of rosuvastatin uptake accounted for by NTCP alone ([8]; human hepatocyte studies): ~ 35%

Cc1ccccc1C(=O)Nc1ccc(C(=O)N2CCCC(O)c3cc(Cl)ccc32)c(C)c1 (stereo not shown) [TLV, Tolvaptan]
Clinical inhibition of BCRP (BCRP [6]; 90 mg TLV with 5 mg rosuvastatin calcium): No clinically relevant inhibition
TEAE incidence: constipation [7, 14]: 14.3%
TEAE incidence: dry mouth [7, 14]: 14.3%
TEAE incidence: nausea [7, 14]: 21.4%
TEAE incidence: pollakiuria [7, 14]: 71.4%
TEAE incidence: constipation [5, 15]: 14.3%
TEAE incidence: dizziness [5, 15]: 14.3%
TEAE incidence: dry mouth [5, 15]: 21.4%
TEAE incidence: headache [5, 15]: 14.3%
TEAE incidence: insomnia [5, 15]: 14.3%
TEAE incidence: polyuria [5, 15]: 100%
TEAE incidence: thirst [5, 15]: 92.9%
Increase of in vitro solubility by spray-dried formulation ([9]; TLV tablets, spray-dried technique): up to sevenfold
Solubility [9]: ~ 0.01 g/250 ml
Solubility ([9]; in Discussion): about 0.01 mg/250 ml and ~ 0.09 µM
Safety and tolerability ([4]; 300 mg TLV for 5 days, healthy subjects): safe and well‐tolerated
half-life [4]: about 3.5 h
NTCP inhibition ([8]; IC50 value higher than Cmax): inhibitor of NTCP
Accumulation in sandwich-cultured human hepatocytes [10]: at least 10 fold
Liver:blood ratio [11]: 38.76
Predicted concentration of dose in 250 ml (Igut) (BCRP [12]): 800 µM
